Data from patent US8461328B2, “Tricyclic heterocyclic compounds, compositions and methods of use thereof” (Genentech, Inc., priority 2010, dated 2013).

Assays:
Type in all cases: biochemical
[1] = molecular target: T1, JAK2 (Homo sapiens, UniProt O60674); test: JAK2 inhibition (Table 4); settings: read-out: JAK2 Ki
T1 construct: made in house; host or cells: SF9 insect cells (baculovirus)

[2] = molecular target: T2, JAK3 (Homo sapiens, UniProt P52333); test: JAK3 inhibition (Table 4); settings: read-out: JAK3 Ki
T2 construct: made in house; host or cells: SF9 insect cells (baculovirus)
T2 sequence (P52333 783-1124): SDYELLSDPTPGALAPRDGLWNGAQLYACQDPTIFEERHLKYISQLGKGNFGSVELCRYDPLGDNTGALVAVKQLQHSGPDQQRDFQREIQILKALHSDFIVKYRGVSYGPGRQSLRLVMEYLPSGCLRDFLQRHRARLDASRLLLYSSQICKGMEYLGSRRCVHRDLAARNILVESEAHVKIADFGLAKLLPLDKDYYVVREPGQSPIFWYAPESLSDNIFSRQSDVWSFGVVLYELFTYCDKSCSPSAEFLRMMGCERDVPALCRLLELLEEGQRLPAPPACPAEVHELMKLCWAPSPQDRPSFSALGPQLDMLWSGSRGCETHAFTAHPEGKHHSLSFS

[3] = molecular target: T3, TYK2 (Homo sapiens, UniProt P29597); test: TYK2 inhibition (Table 4)
T3 construct: made in house; host or cells: SF9 insect cells (baculovirus)
T3 sequence (P29597 873-1187): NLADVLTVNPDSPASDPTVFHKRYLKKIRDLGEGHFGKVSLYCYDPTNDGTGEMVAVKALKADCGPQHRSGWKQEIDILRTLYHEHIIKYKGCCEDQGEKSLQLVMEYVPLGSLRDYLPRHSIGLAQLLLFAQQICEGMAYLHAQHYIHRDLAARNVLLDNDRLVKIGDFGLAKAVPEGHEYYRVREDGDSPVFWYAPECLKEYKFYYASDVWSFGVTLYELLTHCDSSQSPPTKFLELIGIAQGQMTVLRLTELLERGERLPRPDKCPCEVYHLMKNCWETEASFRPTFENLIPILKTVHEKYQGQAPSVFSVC

[4] = molecular target: T4, JAK1 (Homo sapiens, UniProt P23458); test: JAK1 inhibition (Table 4); settings: read-out: JAK1 Ki
T4 construct: made in house; host or cells: SF9 insect cells (baculovirus)
T4 sequence (P23458 852-1154): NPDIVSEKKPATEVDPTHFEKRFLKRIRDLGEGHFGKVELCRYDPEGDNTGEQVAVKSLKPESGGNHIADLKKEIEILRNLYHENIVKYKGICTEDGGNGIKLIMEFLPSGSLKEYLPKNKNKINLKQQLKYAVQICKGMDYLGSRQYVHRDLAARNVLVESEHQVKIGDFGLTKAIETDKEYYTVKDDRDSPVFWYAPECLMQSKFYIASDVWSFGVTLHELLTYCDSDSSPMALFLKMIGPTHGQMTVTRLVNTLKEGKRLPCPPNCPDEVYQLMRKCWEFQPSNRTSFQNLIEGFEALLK

T1 sequence (O60674 812-1132): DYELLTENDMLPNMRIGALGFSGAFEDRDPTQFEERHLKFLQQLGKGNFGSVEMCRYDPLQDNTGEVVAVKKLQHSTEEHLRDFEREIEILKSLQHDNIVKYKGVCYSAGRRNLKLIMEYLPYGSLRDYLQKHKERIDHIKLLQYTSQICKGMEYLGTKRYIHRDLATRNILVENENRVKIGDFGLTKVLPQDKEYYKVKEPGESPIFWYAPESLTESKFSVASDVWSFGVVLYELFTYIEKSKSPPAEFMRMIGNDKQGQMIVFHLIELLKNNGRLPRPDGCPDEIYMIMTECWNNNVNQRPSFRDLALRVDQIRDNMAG

| Ki [1] | Ki [2] | Ki [3] | Ki [4] | Structure (SMILES) |
| --- | --- | --- | --- | --- |
| 106 nM | 97.7 nM | 415 nM | 16.2 nM | CC(C)S(=O)(=O)NCc1nc2cnc3[nH]ccc3c2n1C1CCN(CCC#N)CC1 [Example 495, Propane-2-sulfonic acid {1-[1-(2-cyano-ethyl)-piperidin-4-yl]-1,6-dihydro-1,3,5,6-tetraaza-as-indacen-2-ylmethyl}-amide] |
| 8.05 nM | 13.1 nM | 55.7 nM | 2.75 nM | N#CCCN1CCC(n2c(CNC(=O)c3ccccn3)nc3cnc4[nH]ccc4c32)CC1 [Example 496, Pyridine-2-carboxylic acid {1-[1-(2-cyano-ethyl)-piperidin-4-yl]-1,6-dihydro-1,3,5,6-tetraaza-as-indacen-2-ylmethyl}-amide] |
| 41.5 nM | 76.3 nM | 169 nM | 13 nM | N#CCCN1CCC(n2c(CNS(=O)(=O)C3CC3)nc3cnc4[nH]ccc4c32)CC1 [Example 497, Cyclopropanesulfonic acid {1-[1-(2-cyano-ethyl)-piperidin-4-yl]-1,6-dihydro-1,3,5,6-tetraaza-as-indacen-2-ylmethyl}-amide] |
| 67.7 nM | 60 nM | 307 nM | 21.9 nM | CC(C)C(=O)NCc1nc2cnc3[nH]ccc3c2n1C1CCN(CCC#N)CC1 [Example 498, N-{1-[1-(2-Cyano-ethyl)-piperidin-4-yl]-1,6-dihydro-1,3,5,6-tetraaza-as-indacen-2-ylmethyl}-isobutyramide] |
| 85.6 nM | 103 nM | 417 nM | 13.8 nM | N#CCCN1CCC(n2c(CNS(=O)(=O)C3CCCC3)nc3cnc4[nH]ccc4c32)CC1 [Example 499, Cyclopentanesulfonic acid {1-[1-(2-cyano-ethyl)-piperidin-4-yl]-1,6-dihydro-1,3,5,6-tetraaza-as-indacen-2-ylmethyl}-amide] |
| 58.7 nM | 41 nM | 394 nM | 28.7 nM | N#CCCN1CCC(n2c(CNC(=O)C3CC3)nc3cnc4[nH]ccc4c32)CC1 [Example 500, Cyclopropanecarboxylic acid {1-[1-(2-cyano-ethyl)-piperidin-4-yl]-1,6-dihydro-1,3,5,6-tetraaza-as-indacen-2-ylmethyl}-amide] |
| 12 nM | 12.2 nM | 56.4 nM | 3.93 nM | N#CCCN1CCC(n2c(CNC(=O)c3ccccc3F)nc3cnc4[nH]ccc4c32)CC1 [Example 501, N-{1-[1-(2-Cyano-ethyl)-piperidin-4-yl]-1,6-dihydro-1,3,5,6-tetraaza-as-indacen-2-ylmethyl}-2-fluoro-benzamide] |
| 10.4 nM | 19.6 nM | 50.5 nM | 2.54 nM | COCC(=O)NCc1nc2cnc3[nH]ccc3c2n1C1CCN(CCC#N)CC1 [Example 503, N-{1-[1-(2-Cyano-ethyl)-piperidin-4-yl]-1,6-dihydro-1,3,5,6-tetraaza-as-indacen-2-ylmethyl}-2-methoxy-acetamide] |
| 25.4 nM | 53.6 nM | 116 nM | 7.75 nM | CCS(=O)(=O)NCc1nc2cnc3[nH]ccc3c2n1C1CCN(CCC#N)CC1 [Example 504] |
| 22.4 nM | 20.4 nM | 98.8 nM | 5.18 nM | N#CCCN1CCC(n2c(CNC(=O)c3cccc(F)c3)nc3cnc4[nH]ccc4c32)CC1 [Example 505, N-{1-[1-(2-Cyano-ethyl)-piperidin-4-yl]-1,6-dihydro-1,3,5,6-tetraaza-as-indacen-2-ylmethyl}-3-fluoro-benzamide] |
| 53.7 nM | 74 nM | 179 nM | 5.75 nM | CC(C)CS(=O)(=O)NCc1nc2cnc3[nH]ccc3c2n1C1CCN(CCC#N)CC1 [Example 506, 2-Methyl-propane-1-sulfonic acid {1-[1-(2-cyano-ethyl)-piperidin-4-yl]-1,6-dihydro-1,3,5,6-tetraaza-as-indacen-2-ylmethyl}-amide] |
| 10.3 nM | 23.2 nM | 10.2 nM | 2.14 nM | OCc1nc2cnc3[nH]ccc3c2n1C1CCN(CCF)CC1 [Example 508, {1-[1-(2-Fluoro-ethyl)-piperidin-4-yl]-1,6-dihydro-1,3,5,6-tetraaza-as-indacen-2-yl}-methanol] |
| 23.6 nM | 65.5 nM | 21.6 nM | 2.55 nM | O=S(=O)(CCC(F)(F)F)NCCc1nc2cnc3[nH]ccc3c2n1C1CCCCC1 [Example 509, 3,3,3-Trifluoro-propane-1-sulfonic acid [2-(1-cyclohexyl-1,6-dihydro-1,3,5,6-tetraaza-as-indacen-2-yl)-ethyl]-amide] |
| 51.1 nM | 132 nM | 20.8 nM | 3.91 nM | CN(C)CC(=O)NCCc1nc2cnc3[nH]ccc3c2n1C1CCCCC1 [Example 510, N-[2-(1-Cyclohexyl-1,6-dihydro-1,3,5,6-tetraaza-as-indacen-2-yl)-ethyl]-2-dimethylamino-acetamide] |
| 48.9 nM | 174 nM | 30.3 nM | 5.3 nM | CN1CCN(S(=O)(=O)NCCc2nc3cnc4[nH]ccc4c3n2C2CCCCC2)CC1 [Example 511, 4-Methyl-piperazine-1-sulfonic acid [2-(1-cyclohexyl-1,6-dihydro-1,3,5,6-tetraaza-as-indacen-2-yl)-ethyl]-amide] |
| 2.16 nM | 7.63 nM | 6.95 nM | 0.84 nM | Cc1nc2cnc3[nH]ccc3c2n1C1CCN(CCF)CC1 [Example 513, 1-[1-(2-Fluoro-ethyl)-piperidin-4-yl]-2-methyl-1,6-dihydro-1,3,5,6-tetraaza-as-indacene] |
| 7.04 nM | 25.4 nM | 48.8 nM | 3.48 nM | CCN1CC[C@@H](n2c(C)nc3cnc4[nH]ccc4c32)[C@@H](F)C1 [Example 521, 1-((3S,4R)-1-Ethyl-3-fluoro-piperidin-4-yl)-2-methyl-1,6-dihydro-1,3,5,6-tetraaza-as-indacene] |
| 56.9 nM | 180 nM | 356 nM | 38.5 nM | CCN1CC[C@@H](n2nnc3cnc4[nH]ccc4c32)[C@@H](F)C1 [Example 522, 1-((3S,4R)-1-Ethyl-3-fluoro-piperidin-4-yl)-1,6-dihydro-1,2,3,5,6-pentaaza-as-indacene] |
| 16.7 nM | 302 nM | 85.6 nM | 11.2 nM | CCN1CC[C@@H](n2cnc3cnc4[nH]ccc4c32)[C@@H](F)C1 [Example 523, 1-((3S,4R)-1-Ethyl-3-fluoro-piperidin-4-yl)-1,6-dihydro-1,3,5,6-tetraaza-as-indacene] |
| 1.45 nM | 3 nM | 5.61 nM | 0.66 nM | N#CCCN1CCC(n2c(CF)nc3cnc4[nH]ccc4c32)CC1 [Example 530, 3-[4-(2-Fluoromethyl-6H-1,3,5,6-tetraaza-as-indacen-1-yl)-piperidin-1-yl]-propionitrile] |
| 76.6 nM | 51 nM | 27.3 nM | 18.2 nM | OCc1nc2cnc3[nH]ccc3c2n1C1CCOCC1 [Example 542, [1-(Tetrahydro-pyran-4-yl)-1,6-dihydro-1,3,5,6-tetraaza-as-indacen-2-yl]-methanol] |
| 384 nM | 179 nM | 274 nM | 82.6 nM | C[C@H](O)c1nc2cnc3[nH]ccc3c2n1C1CCOCC1 [Example 543, (S)-1-[1-(Tetrahydro-pyran-4-yl)-1,6-dihydro-1,3,5,6-tetraaza-as-indacen-2-yl]-ethanol] |
| 184 nM | 1410 nM | 638 nM | 27.4 nM | Cc1nc2cnc3[nH]ccc3c2n1C1CCN(C(C)C)CC1 [Example 547, 1-(1-Isopropyl-piperidin-4-yl)-2-methyl-1,6-dihydro-1,3,5,6-tetraaza-as-indacene] |
| 182 nM | 3490 nM | 809 nM | 92.4 nM | CC(C)N1CCC(n2cnc3cnc4[nH]ccc4c32)CC1 [Example 549, 1-(1-Isopropyl-piperidin-4-yl)-1,6-dihydro-1,3,5,6-tetraaza-as-indacene] |
| 276 nM | 491 nM | 302 nM | 33 nM | CC(=O)N1CCC(N[C@H]2CC[C@H](n3cnc4cnc5[nH]ccc5c43)CC2)CC1 [Example 555, trans 1-{4-[4-(6H-1,3,5,6-Tetraaza-as-indacen-1-yl)-cyclohexylamino]-piperidin-1-yl}-ethanone] |
| 190 nM | 894 nM | 1460 nM | 60.4 nM | CC(C)(C)OC(=O)N1CCC[C@@H]1CN[C@H]1CC[C@H](n2cnc3cnc4[nH]ccc4c32)CC1 [Example 556, trans (R)-2-{[4-(6H-1,3,5,6-Tetraaza-as-indacen-1-yl)-cyclohexylamino]-methyl}-pyrrolidine-1-carboxylic acid tert-butyl ester] |
| 136 nM | 310 nM | 443 nM | 21.4 nM | CC(C)(C)OC(=O)N1CC(CN[C@H]2CC[C@H](n3cnc4cnc5[nH]ccc5c43)CC2)C1 [Example 557, trans 3-{[4-(6H-1,3,5,6-Tetraaza-as-indacen-1-yl)-cyclohexylamino]-methyl}-azetidine-1-carboxylic acid tert-butyl ester] |
